Results reported in US20260285866A1, “MODULATORS OF TRPML, THEIR COMPOSITIONS AND METHODS OF USE” (Caraway Therapeutics, Inc., priority 2024, published 2026).

Columns and labels:
Type in all cases: cell-based
Human TRPML1 = Human TRPML1 (Homo sapiens, UniProt Q9GZU1, L15A/L16A/L577A/L578A); test: Fluorescent TRPML1 assay (Fluo4-AM, HEK-293 Trex cells expressing hTRPML1); settings: fluorescent calcium assay, doxycycline-induced hTRPML1
Outline: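 Doxycycline-induced (0.5 μg/mL) HEK-293 Trex cells stably expressing surface-targeted mutant hTRPML1, loaded with 1 μM Fluo4-AM, then suspended in modified Ringer's with 10 mM calcium and added to compounds (20 μM to 6 nM final, half-log steps, triplicate). Fluorescence read at ex 480/em 540; percent activity versus plate controls, EC50 by non-linear regression.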

Human TRPML2 = target: T1, Human TRPML2 (Homo sapiens, UniProt Q8IZK6); test: Fluorescent TRPML2 assay (as for TRPML1); settings: fluorescent calcium assay as for TRPML1, TRPML2 subtype
T1 construct: expressed in transfected cells
T1 sequence (Q8IZK6 1-566): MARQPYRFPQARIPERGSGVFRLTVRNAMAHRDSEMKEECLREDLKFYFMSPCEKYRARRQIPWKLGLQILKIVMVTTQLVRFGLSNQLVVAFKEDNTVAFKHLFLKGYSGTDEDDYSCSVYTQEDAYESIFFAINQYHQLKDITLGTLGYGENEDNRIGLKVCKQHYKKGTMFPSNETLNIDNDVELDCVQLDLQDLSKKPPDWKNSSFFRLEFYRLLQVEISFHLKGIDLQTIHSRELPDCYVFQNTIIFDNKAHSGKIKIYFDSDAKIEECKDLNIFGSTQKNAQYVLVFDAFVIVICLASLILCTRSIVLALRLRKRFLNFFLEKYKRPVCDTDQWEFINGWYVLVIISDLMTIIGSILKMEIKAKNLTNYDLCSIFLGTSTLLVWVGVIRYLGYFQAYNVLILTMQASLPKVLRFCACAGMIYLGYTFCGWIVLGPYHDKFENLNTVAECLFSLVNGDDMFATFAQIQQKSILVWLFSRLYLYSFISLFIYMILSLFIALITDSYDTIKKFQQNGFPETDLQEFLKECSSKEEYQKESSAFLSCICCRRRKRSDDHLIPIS
Procedure: HEK-293 Trex cells were stably transfected with a construct consisting of the human coding sequence for TRPML1 cloned into the tet-inducible plasmid pCDNA5 T/O. Mutations were introduced into the TRPML1 sequence to facilitate expression on the cell surface (Silvia Vergarajauregui, Rosa Puertollano Traffic. 2006 March; 7(3): 337-353). Briefly, the cells are cultured in 150 mm round tissue culture dishes containing 20 mL of media. The day before the assay the cells are rinsed with DPBS-Ca-Mg and then treated briefly with Trypsin-EDTA. The Trypsin-EDTA is diluted with growth media, and cells are counted. 38×10^6 cells are re-plated into 150 mm round tissue culture dishes in media containing 0.5 μg/mL doxycycline to induce expression of hTRPML1.
The day of the experiment cells are lifted from the plates as above and collected by centrifugation. The cells are then suspended in dye loading buffer consisting of Ringer's solution supplemented with 0.1% Pluronic Acid and 1 micromolar Fluo4-AM dye. Cells are loaded for ~60 minutes in the dark with occasional mixing. The cells are collected by centrifugation, the loading media aspirated, and the cells resuspended in 25 mL Ringer's solution and incubated ~60 minutes in the dark. The cells are again collected by centrifugation, rinsed in Ringer's Solution and resuspended to 0.2×10^6 cells/mL in modified Ringer's solution containing 10 mM calcium.
Compounds are dissolved to a concentration of 10 millimolar with DMSO. Compound plates are created by dispensing compounds into 384 well black wall clear bottom plates (Greiner 781091). Positive and negative controls are included on each plate. Typically, different amounts of each compound are tested ranging from 100 nanoMoles (20 micromolar final concentration) decreasing in half-log steps to 31 picoMoles (6 nanomolar final concentration). Each concentration is typically tested in triplicate.
50 microliters of dye-loaded cells are dispensed into each well of the compound assay plate created above. The fluorescence in each well is then determined with an excitation wavelength of 480 nm and an emission wavelength of 540 nm using either a Molecular Devices SpectraMax multimode plate reader or a Hamamatsu FDSS/uCell plate imager.
The resulting fluorescence for each well is exported as an ascii file and loaded into our LIMS for analysis. The percent activity of each compound at each concentration is determined by comparison to the positive and negative control wells included in each plate.
Assays for TRPML2 and TRPML3 were performed as above for TRPML1, by substituting the appropriate TRPML2 or TRPML3 subtype for the TRPML1.
EC50 values were calculated using a non-linear regression of Prism. In the table, “A” indicates an EC50 of less than 100 nM, “B” indicates an EC50 range from 100 nM to 500 nM: “C” indicates an EC50 range from 500 nM to 2 μM; and “D” indicates an EC50 greater than 2 μM.

Human TRPML3 = target: T2, Human TRPML3 (Homo sapiens, UniProt Q8TDD5); test: Fluorescent TRPML3 assay (as for TRPML1); settings: fluorescent calcium assay as for TRPML1, TRPML3 subtype
T2 construct: expressed in transfected cells
T2 sequence (Q8TDD5 1-553): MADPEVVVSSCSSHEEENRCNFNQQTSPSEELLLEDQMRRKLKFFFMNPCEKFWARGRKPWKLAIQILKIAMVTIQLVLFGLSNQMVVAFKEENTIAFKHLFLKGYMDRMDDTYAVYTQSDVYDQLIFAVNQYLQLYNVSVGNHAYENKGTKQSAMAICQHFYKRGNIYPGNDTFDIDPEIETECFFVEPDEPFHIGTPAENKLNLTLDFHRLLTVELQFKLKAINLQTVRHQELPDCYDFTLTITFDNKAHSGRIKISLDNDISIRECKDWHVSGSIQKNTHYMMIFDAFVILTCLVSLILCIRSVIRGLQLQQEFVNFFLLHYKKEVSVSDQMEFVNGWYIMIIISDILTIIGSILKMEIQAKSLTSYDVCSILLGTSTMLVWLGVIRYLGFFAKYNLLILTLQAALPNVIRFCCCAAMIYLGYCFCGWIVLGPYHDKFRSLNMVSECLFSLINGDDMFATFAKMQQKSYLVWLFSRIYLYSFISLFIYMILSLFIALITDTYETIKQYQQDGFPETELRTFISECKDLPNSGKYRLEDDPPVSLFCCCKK
Outline: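 Tet-inducible HEK-293 Trex cells expressing human TRPML2 or TRPML3, induced overnight with 0.5 μg/mL doxycycline, loaded with 1 μM Fluo4-AM and suspended in Ringer's solution with 10 mM calcium. Compounds tested in triplicate from 20 μM to 6 nM final in half-log steps; fluorescence at 480/540 nm. EC50 by non-linear regression, binned A–D.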

Chain of Human TRPML1 (Q9GZU1 whole entry L15A/L16A/L577A/L578A): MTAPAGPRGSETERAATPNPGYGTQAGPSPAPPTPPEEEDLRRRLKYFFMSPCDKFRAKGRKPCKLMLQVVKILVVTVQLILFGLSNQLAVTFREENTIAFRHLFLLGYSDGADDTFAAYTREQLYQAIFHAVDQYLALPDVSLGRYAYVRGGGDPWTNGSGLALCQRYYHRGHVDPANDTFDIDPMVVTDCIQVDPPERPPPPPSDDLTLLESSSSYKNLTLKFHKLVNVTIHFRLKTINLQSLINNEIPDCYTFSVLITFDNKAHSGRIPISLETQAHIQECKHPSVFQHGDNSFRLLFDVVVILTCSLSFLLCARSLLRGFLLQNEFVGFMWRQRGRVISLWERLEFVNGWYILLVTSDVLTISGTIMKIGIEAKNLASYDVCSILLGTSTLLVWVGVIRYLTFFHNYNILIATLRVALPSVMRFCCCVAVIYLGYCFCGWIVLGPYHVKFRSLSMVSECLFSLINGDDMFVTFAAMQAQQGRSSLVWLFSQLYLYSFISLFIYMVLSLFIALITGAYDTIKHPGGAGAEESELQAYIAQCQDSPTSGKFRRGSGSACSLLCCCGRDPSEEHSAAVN

C[C@@H]1CN(c2ncnc3c2c(-c2ccccc2F)cn3-c2cc(C#N)ccn2)[C@@H](C)CN1C(=O)C1(O)CCCC1 [Compound 121, 2-(5-(2-fluorophenyl)-4-((2S,5R)-4-(1-hydroxycyclopentane-1-carbonyl)-2,5-dimethylpiperazin-1-yl)-7H-pyrrolo[2,3-d]pyrimidin-7-yl)isonicotinonitrile]
EC50 (Human TRPML1): < 0.1 µM
EC50 (Human TRPML2): 0.5 to 2 µM
EC50 (Human TRPML3): < 0.1 µM

C[C@@H]1CN(c2ncnc3c2c(-c2ccncc2)cn3-c2cccc(C#N)c2)[C@@H](C)CN1C(=O)C(C)(C)O [Compound 135, 3-(4-((2S,5R)-4-(2-hydroxy-2-methylpropanoyl)-2,5-dimethylpiperazin-1-yl)-5-(pyridin-4-yl)-7H-pyrrolo[2,3-d]pyrimidin-7-yl)benzonitrile]
EC50 (Human TRPML1): 0.5 to 2 µM
EC50 (Human TRPML2): > 2 µM
EC50 (Human TRPML3): > 2 µM

CCOC(C)(C)C(=O)N1C[C@H](C)N(c2ncnc3c2c(N2CCC2)cn3-c2cc(C#N)ccn2)C[C@H]1C [Compound 173]
EC50 (Human TRPML1): < 0.1 µM
EC50 (Human TRPML2): 0.5 to 2 µM
EC50 (Human TRPML3): 0.1 to 0.5 µM

CCOC(C)(C)C(=O)N1C[C@H](C)N(c2ncnc3c2c(-c2ccncc2)cn3-c2cc(C#N)ccn2)C[C@H]1C [Compound 171, -(4-((2S,5R)-4-(2-ethoxy-2-methylpropanoyl)-2,5-dimethylpiperazin-1-yl)-5-(pyridin-4-yl)-7H-pyrrolo[2,3-d]pyrimidin-7-yl)isonicotinonitrile]
EC50 (Human TRPML1): 0.1 to 0.5 µM
EC50 (Human TRPML2): > 2 µM
EC50 (Human TRPML3): 0.5 to 2 µM

C[C@@H]1CN(c2ncnc3c2c(-c2ccccc2F)cn3-c2cc(C#N)ccn2)[C@@H](C)CN1C(=O)C(C)(C)OCC(F)(F)F [Compound 165, 2-(4-((2S,5R)-2,5-dimethyl-4-(2-methyl-2-(2,2,2-trifluoroethoxy)propanoyl)piperazin-1-yl)-5-(2-fluorophenyl)-7H-pyrrolo[2,3-d]pyrimidin-7-yl)isonicotinonitrile]
EC50 (Human TRPML1): < 0.1 µM
EC50 (Human TRPML2): < 0.1 µM
EC50 (Human TRPML3): < 0.1 µM

C[C@@H]1CN(c2ncnc3c2c(-c2ccncc2)cn3-c2cc(C#N)ccn2)[C@@H](C)CN1C(=O)C1(O)CCCCC1 [Compound 151, 2-(4-((2S,5R)-4-(1-hydroxycyclohexane-1-carbonyl)-2,5-dimethylpiperazin-1-yl)-5-(pyridin-4-yl)-7H-pyrrolo[2,3-d]pyrimidin-7-yl)isonicotinonitrile]
EC50 (Human TRPML1): < 0.1 µM
EC50 (Human TRPML2): 0.5 to 2 µM
EC50 (Human TRPML3): 0.1 to 0.5 µM

C[C@@H]1CN(c2ncnc3c2c(-c2ccccc2)cn3-c2cc(C#N)ccn2)[C@@H](C)CN1C(=O)C1(O)COC1 [Compound 120, 2-(4-((2S,5R)-4-(3-hydroxyoxetane-3-carbonyl)-2,5-dimethylpiperazin-1-yl)-5-phenyl-7H-pyrrolo[2,3-d]pyrimidin-7-yl)isonicotinonitrile]
EC50 (Human TRPML1): 0.1 to 0.5 µM
EC50 (Human TRPML2): > 2 µM
EC50 (Human TRPML3): 0.5 to 2 µM

C[C@@H]1CN(c2ncnc3c2c(-c2ccccc2)cn3-c2cc(C#N)ccn2)[C@@H](C)CN1C(=O)C(O)(C(F)(F)F)C(F)(F)F [Compound 110, 2-(4-((2S,5R)-2,5-dimethyl-4-(3,3,3-trifluoro-2-hydroxy-2-(trifluoromethyl)propanoyl)piperazin-1-yl)-5-phenyl-7H-pyrrolo[2,3-d]pyrimidin-7-yl)isonicotinonitrile]
EC50 (Human TRPML1): < 0.1 µM
EC50 (Human TRPML2): > 2 µM
EC50 (Human TRPML3): 0.1 to 0.5 µM

C[C@@H]1CN(c2ncnc3c2c(-n2cccn2)cn3-c2cc(C#N)ccn2)[C@@H](C)CN1C(=O)C(C)(C)O [Compound 133, 2-(4-((2S,5R)-4-(2-hydroxy-2-methylpropanoyl)-2,5-dimethylpiperazin-1-yl)-5-(1H-pyrazol-1-yl)-7H-pyrrolo[2,3-d]pyrimidin-7-yl)isonicotinonitrile]
EC50 (Human TRPML1): 0.5 to 2 µM
EC50 (Human TRPML2): > 2 µM
EC50 (Human TRPML3): 0.5 to 2 µM

C[C@@H]1CN(c2ncnc3c2c(-c2ccncc2)cn3-c2cc(C#N)ccn2)[C@@H](C)CN1C(=O)C(C)(C)O [Compound 125, 2-(4-((2S,5R)-4-(2-hydroxy-2-methylpropanoyl)-2,5-dimethylpiperazin-1-yl)-5-(pyridin-4-yl)-7H-pyrrolo[2,3-d]pyrimidin-7-yl)isonicotinonitrile]
EC50 (Human TRPML1): 0.1 to 0.5 µM
EC50 (Human TRPML2): > 2 µM
EC50 (Human TRPML3): 0.5 to 2 µM

CCOC(C)(C)C(=O)N1C[C@H](C)N(c2ncnc3c2c(C2CC2)cn3-c2cc(C#N)ccn2)C[C@H]1C [Compound 172, 2-(5-cyclopropyl-4-((2S,5R)-4-(2-ethoxy-2-methylpropanoyl)-2,5-dimethylpiperazin-1-yl)-7H-pyrrolo[2,3-d]pyrimidin-7-yl)isonicotinonitrile]
EC50 (Human TRPML1): < 0.1 µM
EC50 (Human TRPML2): 0.5 to 2 µM
EC50 (Human TRPML3): 0.5 to 2 µM

CCOC(C)(C)C(=O)N1C[C@H](C)N(c2ncnc3c2c(-c2ccccc2)cn3-c2cc(C#N)ccn2)C[C@H]1C [Compound 170, 2-(4-((2S,5R)-4-(2-ethoxy-2-methylpropanoyl)-2,5-dimethylpiperazin-1-yl)-5-phenyl-7H-pyrrolo[2,3-d]pyrimidin-7-yl)isonicotinonitrile]
EC50 (Human TRPML1): < 0.1 µM
EC50 (Human TRPML2): 0.1 to 0.5 µM
EC50 (Human TRPML3): < 0.1 µM

C[C@@H]1CN(c2ncnc3c2c(-c2ccncc2)cn3-c2cccc(OC(F)(F)F)c2)[C@@H](C)CN1C(=O)C(C)(C)O [Compound 148, 1-((2R,5S)-2,5-dimethyl-4-(5-(pyridin-4-yl)-7-(3-(trifluoromethoxy)phenyl)-7H-pyrrolo[2,3-d]pyrimidin-4-yl)piperazin-1-yl)-2-hydroxy-2-methylpropan-1-one]
EC50 (Human TRPML1): 0.5 to 2 µM
EC50 (Human TRPML2): > 2 µM
EC50 (Human TRPML3): > 2 µM

C[C@@H]1CN(c2ncnc3c2c(-c2ccccc2)cn3-c2cc(C#N)ccn2)[C@@H](C)CN1C(=O)CC(C)(C)O [Compound 159, 2-(4-((2S,5R)-4-(3-hydroxy-3-methylbutanoyl)-2,5-dimethylpiperazin-1-yl)-5-phenyl-7H-pyrrolo[2,3-d]pyrimidin-7-yl)isonicotinonitrile]
EC50 (Human TRPML1): < 0.1 µM
EC50 (Human TRPML2): 0.5 to 2 µM
EC50 (Human TRPML3): 0.1 to 0.5 µM
